Test results: patent publication US20050043245A1, “Non-mammalian GnRH analogs and uses thereof in the immune system” (priority 2003, published 2005)
One block for each molecule: values may come before it. Square brackets hold non-standard residues; d marks the D form. Ends that are not written are not given here. Peptide text beside a SMILES is read from it. pGlu = O=C1CC[C@@H](C(=O)O)N1; azaGly = NNC(=O)O

How the values were obtained:
human leukocytes = experiment: Cytokine release from cultured human leukocytes; type: cell-based; details: for effect on IL-4 production / effect on IL-8 production / effect on IL-10 production / effect on Interferon γ (INFγ) production: 2×10^−9 to 2×10^−7 M at 1, 3 and 20 hours; for activity on immune systems cytokines: compared among GnRH forms, varying doses
Experimental: Tissues of the immune system have been examined for the ability of their cells in vitro to respond to GnRH II (SEQ ID NO: 6) in culture medium. The media from cell cultures of immune system tissues have been examined for the release of cytokine into the medium after incubation with and without GnRH II analog (SEQ ID NO: 2).
Cell cultures of human leukocytes tissues have been prepared. […] The release of cytokines into the medium have been determined and compared for each form of GnRH studied.
We studied the effect of cytokines primarily produced by T cells. […] Concentrations of 2×10^−9 to 2×10^−7 M at 1, 3 and 20 hours were studied.
We have also studied cytokine produced primarily by B cells and macrophages. […] This is consistent with opposing activities followed by downregulation of the receptors with chronic high concentrations of the ligand.
Using our GnRH II analog (SEQ ID NO: 2) an inhibition of GM-CSF was clearly apparent after 20 hours of exposure.

[1] = Whole blood, plasma and serum stability of GnRH II analog; type: in vitro ADME
Experimental: FIG. 2 is a graph showing stability of GnRH II analog in blood and plasma. GnRH II Analog is stable throughout twenty-four hour of incubation in plasma and for the seventeen hours in serum following the initial serum formation.
The enzymatic degradation of the non-mammalian GnRH (SEQ ID NO: 6) and its analog (SEQ ID NO: 2) were studied using whole blood and plasma stability studies. A peptidase present in the immune system was used. Non-mammalian GnRH analogs (SEQ ID NO: 2) were designed with these specific criteria in mind. The stability of these non-mammalian GnRH analogs (SEQ ID NO: 2) to the enzymatic activity of the peptidase and in immune system cells were examined.
Each of these analogs was then studied for their ability to resist degradation over time of incubation with the immune system cells at 37° C. The reaction was stopped by freezing and the remaining GnRH I substrate, GnRH II substrate or non-mammalian analog was directly quantified by radioimmunoassay.
Studies using whole immune system cells were also performed. […] FIG. 2 is a graph showing stability of GnRH II in blood and plasma.

immune system receptor = experiment: Immune system GnRH receptor binding; design: species or system human
Description: The receptor binding activity of non-mammalian GnRH (SEQ ID NO: 6 and SEQ ID NO: 7) and non-mammalian GnRH analogs (SEQ ID NO: 2 and SEQ ID NO: 4) of the present invention will be compared. There is a human non-mammalian GnRH receptor which is distinct from the GnRH I receptor at the pituitary. […] They have also been designed to limit degradation by the immune system enzymes, present in lymphatic circulation. Binding activity of the newly synthesized non-mammalian GnRH analogs (SEQ ID NO: 2 and SEQ ID NO: 4) has been studied in plasma.
The newly synthesized non-mammalian GnRH analogs (SEQ ID NO: 2 and SEQ ID NO: 4) and other commercially available analogs have been used in receptor binding studies in plasma and enzyme stability study described here. On the basis of these studies, the most receptor potent and most enzyme-stable analogs have been chosen for further biopotency studies. GnRH receptors have been purified from the fractions from immune system tissues. The purification procedure for the GnRH receptor utilized ethanol precipatation of the receptor and not the GnRH. The remaining non-mammalian GnRH binding assays activity using ^125I-D-Arg-GnRH II-Aza-Gly-2^125 label and GnRH II have been performed. Receptors from two different tissues from the same type of immune system cells have been used to study each of these analogs. […]

placental GnRH receptor = details: cited from earlier work
T cells = details: effects only seen after twenty-four hours; cited from earlier work
rhesus monkeys = details: chronic administration, long-acting; cited from earlier work
[2] = target: T1, human pituitary GnRH receptor (Homo sapiens, UniProt P30968); details: cited from earlier work
T1 sequence (P30968 1-328): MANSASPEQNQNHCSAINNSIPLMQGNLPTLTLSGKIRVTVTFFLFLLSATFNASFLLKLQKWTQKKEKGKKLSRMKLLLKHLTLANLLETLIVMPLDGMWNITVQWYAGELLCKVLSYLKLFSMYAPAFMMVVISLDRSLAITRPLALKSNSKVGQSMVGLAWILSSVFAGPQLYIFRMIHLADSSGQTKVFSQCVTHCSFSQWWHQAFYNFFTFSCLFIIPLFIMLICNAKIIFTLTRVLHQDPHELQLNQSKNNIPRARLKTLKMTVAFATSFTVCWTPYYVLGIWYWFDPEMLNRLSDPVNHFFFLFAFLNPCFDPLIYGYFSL

human placental explants = details: in vitro; cited from earlier work
[3] = after one hour of treatment, still observed at 3 and 20 hours

Molecule: CCNC(=O)[C@@H]1CCCN1C(=O)[C@H](CCCNC(=N)N)NC(=O)[C@H](CC(C)C)NC(=O)[C@@H](COC(C)(C)C)NC(=O)[C@H](Cc1ccc(O)cc1)NC(=O)[C@H](CO)NC(=O)[C@H](Cc1c[nH]c2ccccc12)NC(=O)[C@H](Cc1cnc[nH]1)NC(=O)[C@@H]1CCC(=O)N1 [Buserelin]
effect on IL-4 production (human leukocytes): no effects
effect on IL-8 production (human leukocytes): no effects
effect on IL-10 production (human leukocytes): no effects
effect on Interferon γ (INFγ) production (human leukocytes): no effects
effect on Interleukin 12 (IL-12) (human leukocytes; [3]): inhibited

stability in serum ([1]; seventeen hours in serum following the initial serum formation): stable
stability in plasma ([1]; throughout twenty-four hour of incubation in plasma): stable
affinity for the immune system receptor relative to GnRH I (immune system receptor): greater affinity
Molecule: N=C(N)NCCC[C@@H](NC(=O)[C@H](Cc1c[nH]cn1)NC(=O)[C@H](CO)NC(=O)[C@H](Cc1c[nH]c2ccccc12)NC(=O)[C@H](Cc1c[nH]cn1)NC(=O)[C@@H]1CCC(=O)N1)C(=O)N[C@@H](Cc1c[nH]c2ccccc12)C(=O)N[C@@H](Cc1ccc(O)cc1)C(=O)N1CCC[C@H]1C(=O)NNC(N)=O [GnRH II analog, D-Arg-GnRH II-aza-Gly-amide] ([pGlu]HWSH[dR]WYP[azaGly]-NH2)
effect on IL-4 production (human leukocytes): no effects
effect on IL-8 production (human leukocytes): no effects
effect on IL-10 production (human leukocytes): no effects
effect on Interferon γ (INFγ) production (human leukocytes): no effects
effect on GM-CSF release (human leukocytes; 20 hours): inhibition
effect on Interleukin 12 (IL-12) (human leukocytes; [3]): inhibited
activity on immune systems cytokines (human leukocytes): most active

Molecule: GnRH II: chicken II GnRH, natural non-mammalian GnRH isoform ([pGlu]HWSHGWYPG; ends and bridges not checked; listed as Gallus gallus)
affinity for the placental GnRH receptor (placental GnRH receptor): higher affinity
T cells adhesion and homing (T cells): stimulates
contraceptive effect (rhesus monkeys): effective contraceptive agent
affinity for the human pituitary GnRH receptor [2]: lesser affinity
effect on IL-4 production (human leukocytes): no effects
effect on IL-8 production (human leukocytes): no effects
effect on IL-10 production (human leukocytes): no effects
effect on Interferon γ (INFγ) production (human leukocytes): no effects
effect on Interleukin 12 (IL-12) (human leukocytes; at 3 hours): inhibition
activity on immune systems cytokines (human leukocytes): greater activity
effect on GM-CSF release (human leukocytes; high dose, 3 hrs): inhibits
effect on GM-CSF release (human leukocytes; low dose, 3 hrs): potent stimulant

Molecule: [N-Ac-Pro,D-p-Cl-Phe,D-Nal(2)]-GnRH I
hCG production/release (human placental explants): inhibition
placental prostanoids / basal prostaglandin production (human placental explants): inhibited
progesterone production (human placental explants): dramatically suppressed

affinity for the immune system receptor relative to GnRH I (immune system receptor): greater affinity
Molecule: salmon GnRH analog: salmon GnRH sequence modified at the 6 position using D-Arg and at the 10 position (ethylamide or aza-Gly^10-NH2)

Molecule: salmon GnRH: natural non-mammalian GnRH isoform of salmon ([pGlu]HWSYGWLPG; ends and bridges not checked)
affinity for the placental GnRH receptor (placental GnRH receptor): higher affinity
affinity for the human pituitary GnRH receptor [2]: lesser affinity
